Measurements published in ChEMBL document CHEMBL1154005 (J Med Chem, 2009).
Active and inactive are the calls of the source.

What was measured:
Adipocyte = test: Inhibition of lipolysis in IBMX-stimulated human adipocytes assessed as glycerol release after 5 hrs; format: functional, cell-based
[1] = Volume of distribution at steady state in C57BL/6 mouse at 1 mg/kg, iv or 2 mg/kg, po; format: ADME, organism-based; conditions: in vivo, read-out: Vdss
[2] = Cmax in C57BL/6 mouse at 2 mg/kg, po; format: ADME, organism-based; design: dose 2 mg/kg, route oral; conditions: in vivo
Rattus norvegicus [3] = test: Toxicity in Sprague-Dawley rat assessed as plasma concentration at threshold dose for vasodilation at 100 mg/kg, sc; format: organism-based; design: dose 100 mg/kg, route subcutaneous; conditions: in vivo, read-out: Activity
[4] = Oral bioavailability in C57BL/6 mouse at 2 mg/kg; format: ADME, organism-based; conditions: in vivo
[5] = biological target: Hydroxycarboxylic acid receptor 2 (Rattus norvegicus, UniProt Q80Z39); test: Agonist activity at rat GPR109A expressed by [35S]GTPgammaS binding assay; format: functional
Sequence of Hydroxycarboxylic acid receptor 2 (Q80Z39 whole entry): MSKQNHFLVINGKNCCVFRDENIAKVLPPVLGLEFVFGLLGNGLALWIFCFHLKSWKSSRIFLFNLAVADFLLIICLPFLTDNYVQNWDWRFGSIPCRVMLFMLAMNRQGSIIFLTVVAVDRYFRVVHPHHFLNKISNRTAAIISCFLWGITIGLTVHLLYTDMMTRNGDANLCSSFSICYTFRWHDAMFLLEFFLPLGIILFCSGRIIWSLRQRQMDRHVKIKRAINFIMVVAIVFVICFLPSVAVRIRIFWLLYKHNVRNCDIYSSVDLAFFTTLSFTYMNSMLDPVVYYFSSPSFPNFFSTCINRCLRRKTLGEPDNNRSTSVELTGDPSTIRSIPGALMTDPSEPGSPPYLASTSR

[6] = Half life in C57BL/6 mouse at 1 mg/kg, iv or 2 mg/kg, po; format: ADME, organism-based; conditions: in vivo
Rattus norvegicus [7] = test: Toxicity in Sprague-Dawley rat assessed as induction of intense flushing by measuring blood perfusion change by Doppler flometry at 100 mg/kg, sc; format: organism-based; design: dose 100 mg/kg, route subcutaneous; conditions: in vivo
[8] = Plasma clearance in C57BL/6 mouse at 1 mg/kg, iv or 2 mg/kg, po; format: ADME, organism-based
Cytochrome P450 2C9 = Cytochrome P450 2C9 (Homo sapiens, UniProt P11712); test: Inhibition of CYP2C9 in human liver microsomes using diclofenac substrate; format: ADME, Microsome
Sequence of Cytochrome P450 2C9 (P11712 whole entry): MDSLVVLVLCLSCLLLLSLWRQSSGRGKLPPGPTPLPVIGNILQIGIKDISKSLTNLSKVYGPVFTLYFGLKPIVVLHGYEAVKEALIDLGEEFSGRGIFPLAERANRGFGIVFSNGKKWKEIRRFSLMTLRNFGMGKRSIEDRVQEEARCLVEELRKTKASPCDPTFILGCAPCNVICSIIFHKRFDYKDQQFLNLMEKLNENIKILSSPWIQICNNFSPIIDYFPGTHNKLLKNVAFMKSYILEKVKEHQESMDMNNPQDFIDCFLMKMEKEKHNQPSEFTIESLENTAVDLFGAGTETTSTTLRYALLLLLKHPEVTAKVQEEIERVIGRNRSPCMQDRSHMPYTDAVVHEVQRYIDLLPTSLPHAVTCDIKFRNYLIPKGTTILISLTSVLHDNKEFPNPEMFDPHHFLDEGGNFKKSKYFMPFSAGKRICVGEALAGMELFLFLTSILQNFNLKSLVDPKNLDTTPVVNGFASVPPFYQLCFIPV

Rattus norvegicus [9] = test: Reduction in free fatty acid level in 18 hrs fasted Sprague-Dawley rat at 100 mg/kg, po; format: functional, organism-based; design: dose 100 mg/kg
Rattus norvegicus [10] = test: Reduction in free fatty acid level in 18 hrs fasted po dosed Sprague-Dawley rat; format: functional, organism-based
Cytochrome P450 2C8 = biological target: T1, Cytochrome P450 2C8 (Homo sapiens, UniProt P10632); test: Inhibition of CYP2C8 in human liver microsomes using montelukast substrate; format: ADME, Microsome
T1 sequence (P10632 whole entry): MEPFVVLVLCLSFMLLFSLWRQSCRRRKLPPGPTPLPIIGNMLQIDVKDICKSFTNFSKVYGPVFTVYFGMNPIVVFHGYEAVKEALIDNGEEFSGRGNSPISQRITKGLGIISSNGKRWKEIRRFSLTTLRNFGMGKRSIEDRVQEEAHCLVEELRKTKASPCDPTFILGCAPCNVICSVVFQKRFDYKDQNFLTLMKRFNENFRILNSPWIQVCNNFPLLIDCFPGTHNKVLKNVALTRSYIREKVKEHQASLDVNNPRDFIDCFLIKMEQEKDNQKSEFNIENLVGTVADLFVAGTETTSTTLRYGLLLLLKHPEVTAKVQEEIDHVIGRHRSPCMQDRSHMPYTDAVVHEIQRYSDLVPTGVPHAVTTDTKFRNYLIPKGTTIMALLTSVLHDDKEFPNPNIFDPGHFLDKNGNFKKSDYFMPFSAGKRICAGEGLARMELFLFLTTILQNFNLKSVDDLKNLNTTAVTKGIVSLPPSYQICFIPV

Rattus norvegicus [11] = test: Plasma concentration in Sprague-Dawley rat at 100 mg/kg, sc; format: ADME, organism-based; design: dose 100 mg/kg, route subcutaneous; conditions: in vivo
[12] = Therapeutic index, ratio of plasma concentration at threshold dose for vasodilation to IC50 for free fatty acid reduction in Sprague-Dawley rat; format: cell-free; conditions: read-out: TI
Rattus norvegicus [13] = test: Plasma concentration in Sprague-Dawley rat at 1 mg/kg, sc; conditions: read-out: Cp, in vivo
Rattus norvegicus [14] = test: Toxicity in Sprague-Dawley rat assessed as plasma concentration at threshold dose for vasodilation at 1 mg/kg, sc; conditions: read-out: Activity, in vivo

Compound	IC50 (Adipocyte)	Vd [1]	Cmax [2]	bioavailability [4]	half-life [6]	clearance [8]	IC50 (Cytochrome P450 2C9)	IC50 (Cytochrome P450 2C8)	further results
O=C(CCc1cnn2c1CCc1cc(O)ccc1-2)Nc1ccccc1C(=O)O	0.11 µM	1.8 L/kg	350 nM	17%	2.9 h	12 mL/min/kg	18 µM	11 µM	concentration (Rattus norvegicus [3]): 500000 nM; EC50 [5]: 2.7 µM; Activity (Rattus norvegicus [7]): Not Active; Activity (Rattus norvegicus [9]): Active; IC50 (Rattus norvegicus [10]): 60 µM; concentration (Rattus norvegicus [11]): 500000 nM; selectivity ratio [12]: 8
O=C(CCc1ccc2c(ccc3[nH]ncc32)c1)Nc1ccccc1C(=O)O	–	0.19 L/kg	3900 nM	24%	3.5 h	0.6 mL/min/kg	< 0.14 µM	–	–
O=C(CCc1nnn2c1ccc1cc(O)ccc12)Nc1ccccc1C(=O)O	0.02 µM	0.95 L/kg	170 nM	6%	1.7 h	7 mL/min/kg	1.5 µM	–	–
O=C(CCc1[nH]nc2c1CCc1cc(O)ccc1-2)Nc1ccccc1C(=O)O	0.28 µM	0.44 L/kg	73 nM	1.4%	2.1 h	2.4 mL/min/kg	26 µM	23 µM	–
O=C(CCc1cn2c(n1)sc1ccccc12)Nc1ccccc1C(=O)O	–	–	–	–	–	–	4.4 µM	–	–
O=C(CCc1noc2c1ccc1cc(O)ccc12)Nc1ccccc1C(=O)O	0.15 µM	–	–	–	–	–	0.99 µM	–	–
Cn1nc(CCC(=O)Nc2ccccc2C(=O)O)c2c1-c1ccc(O)cc1CC2	–	–	–	–	–	–	17 µM	–	–
Cn1c(=O)c2cc(O)ccc2c2ccc(CCC(=O)Nc3ccccc3C(=O)O)cc21	–	0.26 L/kg	1260 nM	10%	2.3 h	1.4 mL/min/kg	4.7 µM	–	–
O=C(O)c1cccnc1 [NIACIN]	0.07 µM	–	–	–	–	–	–	–	IC50 (Rattus norvegicus [10]): 5 µM; concentration (Rattus norvegicus [13]): 7600 nM; concentration (Rattus norvegicus [14]): 7600 nM
O=C(CCc1cn2c(n1)sc1cc(O)ccc12)Nc1ccccc1C(=O)O	0.2 µM	–	–	–	–	–	–	–	–

Second part, led by results:

IC50 (Adipocyte)	Vd [1]	Cmax [2]	bioavailability [4]	half-life [6]	clearance [8]	IC50 (Cytochrome P450 2C9)	IC50 (Cytochrome P450 2C8)	Compound	further results
–	–	–	–	–	–	12 µM	–	O=C(CCc1noc2c1ccc1cc(O)ccc12)NC1=C(C(=O)O)CCCC1	–
–	–	–	–	–	–	2 µM	–	O=C(CCc1noc2c1ccc1c(F)c(O)ccc12)NC1=C(C(=O)O)CCCC1	–
2.6 µM	0.32 L/kg	3800 nM	25%	4.4 h	0.9 mL/min/kg	12 µM	–	O=C(CCc1cn2c(n1)sc1cc(O)ccc12)NC1=C(C(=O)O)CCCC1	–
–	–	–	–	–	–	8.5 µM	20 µM	O=C(CCc1noc2c1Cc1cc(O)ccc1-2)Nc1ccccc1C(=O)O	–
–	–	–	–	–	–	1.5 µM	–	O=C(CCc1noc2c1ccc1c(Cl)c(O)ccc12)NC1=C(C(=O)O)CCCC1	–
–	1.1 L/kg	620 nM	8.2%	1.8 h	9.7 mL/min/kg	2.2 µM	5.9 µM	O=C(CCc1noc2c1CCc1cc(O)ccc1-2)Nc1ccccc1C(=O)O	–
–	–	–	–	–	–	12 µM	–	O=C(CCc1cn2c(n1)sc1cc(O)ccc12)NC1=C(C(=O)O)CCC1	–
–	–	–	–	–	–	11 µM	44 µM	O=C(CCc1noc2c1CCc1cc(O)ccc1-2)NC1=C(C(=O)O)CCCC1	–
0.06 µM	–	–	–	–	–	19 µM	–	O=C(CCc1cnn2c1ccc1cc(O)ccc12)NC1=C(C(=O)O)CCCC1	–
–	0.2 L/kg	1830 nM	7.5%	1.9 h	4.1 mL/min/kg	47 µM	47 µM	O=C(CCc1noc2c1CCc1cc(O)ccc1-2)NC1=C(C(=O)O)CCC1	–
0.06 µM	–	–	–	–	–	9.2 µM	5.8 µM	O=C(CCc1[nH]nc2c1ccc1cc(O)ccc12)Nc1ccccc1C(=O)O	–
